Where two headings read alike, the source gives them in different places. *1 amine or outer side, *2 acyl side, *3 side chain or, on linkers, in order; H or OH if unused. Where a SMILES comes first, the peptide text is derived from it. Bridges are numbered along the chain shown (N, C = ends). Roman numbers before positions name the chains, in order. [ ]: non-standard residue; d: D form. The star is where a group is joined. X4 = CC(=O)N[C@@H](CSC1CC(=O)N(CCCCCC(=O)[*:2])C1=O)C(=O)NCCOCCOCCOCCOCCOCCOCCC(=O)[*:1]; Exatecan = CC[C@@]1(O)C(=O)OCc2c1cc1n(c2=O)Cc2c-1nc1cc(F)c(C)c3c1c2[C@@H](N*)CC3; X1 = O=C(O)[C@H]1O[C@@H](Oc2ccc(COC(=O)[*:2])cc2N[*:1])[C@H](O)[C@@H](O)[C@@H]1O; Hexanoyl(6-succinimido-3yl) = O=C1CC([*:1])C(=O)N1CCCCCC(=O)[*:2]; Dolaproine = CO[C@@H]([C@@H]1CCCN1)[C@@H](C)C(=O)O; X3 = O=C(CCCCCN1C(=O)CC([*:1])C1=O)NCCC(=O)[*:2]; Dil = CC[C@H](C)[C@H](NC)[C@@H](CC(=O)O)OC; PEG6 = NCCOCCOCCOCCOCCOCCOCCC(=O)O; NHCH2OCH2CO = O=C(COCN[*:1])[*:2]; X2 = C[C@@H](N*)[C@@H](O)c1ccccc1; NMeV = CN[C@H](C(=O)O)C(C)C; AEEA = NCCOCCOCC(=O)O
Tests used:
[1] = test system: NCI-H69; assay: Cell killing in NCI-H69 by CGT (CellTiter-Glo); format: cell-based; conditions: NCI-H69, 96 h; for Bottom (Inhibition at Lowest Point) / Top (Inhibition at Highest Point): Inh% relative to DMSO control, 4-parameter fit
Experimental: Approximately 5 µL of the PDC was added to the corresponding wells of the plate, and compared with DMSO (control, without the PDC of the present application), PTX, MMAE, and Dxd wells. The final concentration of DMSO in each well was 0.2%; • (5) The cells were incubated in a 5% CO2 incubator at 37°C for 96 h; • (6) The cell culture plate was equilibrated to room temperature, and 50 µL of CellTiter-Glo® Reagent was added to each well; • (7) The plate was placed on a shaker for 2 min to ensure complete cell lysis; • (8) After mixing, the plate was placed at room temperature to react for 10 min. The fluorescence value (in RLU) was read when the signal became stable. • c) Data analysis • (1) The inhibition (Inh %) relative to the DMSO control was calculated as follows: Inhibition (Inh%)= 100 -(RLU of compound - RLU of DMSO control)/ (RLU of DMSO control - RLU of blank)*100% • (2) The data were analyzed using Graphpad 5.0 software. A 4-parameter equation was fitted to generate a concentration-response curve to obtain the IC50. Table 3: Test Results of Cell Killing in NCI-H69

[2] = target: T1, SSTR2 (Homo sapiens, UniProt P30874); assay: SSTR2 cAMP test; format: cell-based; conditions: for activity at 50 µM: Max Dose 50000 nM; for EC50: SSTR2/CHO cells, Forskolin, cAMP activation rate
T1 construct: expressed in transfected cells; host or cells: CHO cells (SSTR2/CHO)
T1 sequence (P30874 whole entry): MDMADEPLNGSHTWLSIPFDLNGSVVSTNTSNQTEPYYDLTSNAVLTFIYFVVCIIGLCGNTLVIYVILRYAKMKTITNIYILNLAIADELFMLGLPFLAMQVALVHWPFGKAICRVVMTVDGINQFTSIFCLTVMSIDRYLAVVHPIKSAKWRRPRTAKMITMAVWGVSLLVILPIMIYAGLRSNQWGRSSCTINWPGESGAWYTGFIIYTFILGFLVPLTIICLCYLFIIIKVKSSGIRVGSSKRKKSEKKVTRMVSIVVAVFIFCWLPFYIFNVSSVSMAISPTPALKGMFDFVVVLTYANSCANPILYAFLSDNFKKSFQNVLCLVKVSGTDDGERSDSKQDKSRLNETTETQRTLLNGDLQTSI
Experimental: • 1) Compound preparation: The test compound was diluted by 4-fold with DMSO to obtain 10 different concentration points. Approximately 100 nL of the diluted compound was then transferred to a cell reaction plate and centrifuged for later use. • 2) Cell preparation:The cultured SSTR2/CHO cells were collected into a sterile centrifuge tube, and the supernatant was discarded by centrifugation. • 3) The cells were resuspended in assay buffer, counted using a Vi-cell counter, and diluted with assay buffer. • 4) Approximately 100 nL of 100 µM Forskolin was transferred into the cell reaction plate using an Echo and centrifuged. Then, 10 µL of assay buffer containing the cells was added and incubated. • 5) Approximately 10 µL of cAMP detection reagent solution was added to the corresponding wells of the cell reaction plate, and incubated at room temperature in the dark. • 6) The plate was read using a microplate reader. The final value was determined as the ratio of OD at 665 nm to that at 615 nm. • 7) The cAMP value was calculated for each well: Activity (%)=(signal value of sample well - mean signal value of low-signal control wells)/ (mean signal value of high-signal control wells - mean signal value of low-signal control wells). Fitting was performed using the "Nonlinear regression (curve fit)-log(agonist) vs. response -- Variable slope" model in GraphPad Prism 5.0, with the log-transformed compound concentration on the x-axis and cAMP activation rate on the y-axis. The EC50 value of the sample was calculated accordingly. Table 2: SSTR2 cAMP Test Results

Compound | Bottom (Inhibition at Lowest Point) [1] | Top (Inhibition at Highest Point) [1] | activity at 50 µM [2] [%] | IC50 [1] [nM] | EC50 [2] [nM] | other results
CC[C@@]1(O)C(=O)OCc2c1cc1n(c2=O)Cc2c-1nc1cc(F)c(C)c3c1c2[C@@H](NC(=O)CO)CC3 [Dxd] | = 0.0 | 98.19 |  |  |  | IC50 ([1]; Homo sapiens): 7.53 nM
CC[C@H](C)[C@@H]([C@@H](CC(=O)N1CCC[C@H]1[C@H](OC)[C@@H](C)C(=O)N[C@H](C)[C@@H](O)c1ccccc1)OC)N(C)C(=O)[C@@H](NC(=O)[C@H](C(C)C)N(C)C(=O)OCc1ccc(O[C@@H]2O[C@H](C(=O)O)[C@@H](O)[C@H](O)[C@H]2O)c(NC(=O)CCNC(=O)CCCCCN2C(=O)CC(SC[C@H](NC(C)=O)C(=O)NCCOCCOCC(=O)NCCOCCOCC(=O)NCCOCCOCC(=O)N[C@@H](CCCNC(=N)N)C(=O)N[C@@H](CCCNC(=N)N)C(=O)N[C@@H](CC(C)C)C(=O)N[C@@H](Cc3ccccc3)C(=O)N[C@H]3CSSC[C@@H](C(=O)N[C@H](C(=O)N[C@@H](Cc4c[nH]c5ccccc45)C(=O)N[C@@H](CCCNC(=N)N)C(=O)N[C@@H](CC(=O)O)C(N)=O)[C@@H](C)O)NC(=O)[C@H]([C@@H](C)O)NC(=O)[C@H](CCCCN)NC(=O)[C@@H](Cc4c[nH]c5ccccc45)NC(=O)[C@H](Cc4ccc(O)cc4)NC3=O)C2=O)c1)C(C)C (stereo partly drawn) [Example 4, Ac-Cys(MC-betaglucuronide-MMAE)-AEEA-AEEA-AEEA-Arg-Arg-Leu-Phe-[Cys-Tyr-D-Trp-Lys-Thr-Cys]-Thr-Trp-Arg-Asp-NH2] (I: Ac-C[AEEA][AEEA][AEEA]RRLFCY[dW]KTCTWRD-NH2 / II: [X1][NMeV]V[Dil][Dolaproine]-X2; linker I:1-II:N via X3; disulfide I:9-I:14) | 3.88 | 75.08 | 95.2 |  |  | 
CC[C@@]1(O)C(=O)OCc2c1cc1n(c2=O)Cc2c-1nc1cc(F)c(C)c3c1c2[C@@H](NC(=O)COCNC(=O)CNC(=O)[C@H](Cc1ccccc1)NC(=O)CNC(=O)CNC(=O)CCCCCN1C(=O)CC(SC[C@H](NC(=O)CCOCCOCCOCCOCCOCCOCCN)C(=O)NCCOCCOCCOCCOCCOCCOCCC(=O)N[C@@H](CCCNC(=N)N)C(=O)N[C@@H](CCCNC(=N)N)C(=O)N[C@@H](CC(C)C)C(=O)N[C@@H](Cc2ccccc2)C(=O)N[C@H]2CSSC[C@@H](C(=O)N[C@H](C(=O)N[C@@H](Cc4c[nH]c5ccccc45)C(=O)N[C@@H](CCCNC(=N)N)C(=O)N[C@@H](CC(=O)O)C(N)=O)[C@@H](C)O)NC(=O)[C@H]([C@@H](C)O)NC(=O)[C@H](CCCCN)NC(=O)[C@@H](Cc4c[nH]c5ccccc45)NC(=O)[C@H](Cc4ccc(O)cc4)NC2=O)C1=O)CC3 (stereo partly drawn) [Example 5, PEG6-Cys(MC-Gly-Gly-Phe-Gly-NH-CH2-Dxd)-PEG6-Arg-Arg-Leu-Phe-[Cys-Tyr-D-Trp-Lys-Thr-Cys]-Thr-Trp-Arg-Asp-NH2] (I: H-[PEG6]C[PEG6]RRLFCY[dW]KTCTWRD-NH2 / II: GGFG[NHCH2OCH2CO]-Exatecan; linker I:2-II:N via Hexanoyl(6-succinimido-3yl); disulfide I:8-I:13) |  |  | 83.5 | 316 | 155 | 
CC[C@@]1(O)C(=O)OCc2c1cc1n(c2=O)Cc2c-1nc1cc(F)c(C)c3c1c2[C@@H](NC(=O)COCNC(=O)CNC(=O)[C@H](Cc1ccccc1)NC(=O)CNC(=O)CNC(=O)CCCCCN1C(=O)CC(SC[C@H](NC(C)=O)C(=O)NCCOCCOCCOCCOCCOCCOCCC(=O)N[C@@H](CCCNC(=N)N)C(=O)N[C@@H](CCCNC(=N)N)C(=O)N[C@@H](CC(C)C)C(=O)N[C@@H](Cc2ccccc2)C(=O)N[C@H]2CSSC[C@@H](C(=O)N[C@H](C(=O)N[C@@H](Cc4c[nH]c5ccccc45)C(=O)N[C@@H](CCCNC(=N)N)C(=O)N[C@@H](CC(=O)O)C(N)=O)[C@@H](C)O)NC(=O)[C@H]([C@@H](C)O)NC(=O)[C@H](CCCCN)NC(=O)[C@@H](Cc4c[nH]c5ccccc45)NC(=O)[C@H](Cc4ccc(O)cc4)NC2=O)C1=O)CC3 (stereo partly drawn) [Example 6, Ac-Cys(MC-Gly-Gly-Phe-Gly-NH-CH2-Dxd)-PEG6-Arg-Arg-Leu-Phe-[Cys-Tyr-D-Trp-Lys-Thr-Cys]-Thr-Trp-Arg-Asp-NH2] (I: Ac-C[PEG6]RRLFCY[dW]KTCTWRD-NH2 / II: GGFG[NHCH2OCH2CO]-Exatecan; linker I:1-II:N via Hexanoyl(6-succinimido-3yl); disulfide I:7-I:12) |  |  | 67.8 | 276 | 148 | 
CC[C@@]1(O)C(=O)OCc2c1cc1n(c2=O)Cc2c-1nc1cc(F)c(C)c3c1c2[C@@H](NC(=O)COCNC(=O)CNC(=O)[C@H](Cc1ccccc1)NC(=O)CNC(=O)CNC(=O)CCCCCN1C(=O)CC(SC[C@H](NC(C)=O)C(=O)NCCOCCOCCOCCOCCOCCOCCC(=O)NCCCC[C@H](NC(=O)CCOCCOCCOCCOCCOCCOCCNC(=O)[C@H](CSC2CC(=O)N(CCCCCC(=O)NCC(=O)NCC(=O)N[C@@H](Cc4ccccc4)C(=O)NCC(=O)NCOCC(=O)N[C@H]4CCc5c(C)c(F)cc6nc7c(c4c56)Cn4c-7cc5c(c4=O)COC(=O)[C@]5(O)CC)C2=O)NC(C)=O)C(=O)N[C@@H](CCCCNC(=O)CCOCCOCCOCCOCCOCCOCCNC(=O)[C@H](CSC2CC(=O)N(CCCCCC(=O)NCC(=O)NCC(=O)N[C@@H](Cc4ccccc4)C(=O)NCC(=O)NCOCC(=O)N[C@H]4CCc5c(C)c(F)cc6nc7c(c4c56)Cn4c-7cc5c(c4=O)COC(=O)[C@]5(O)CC)C2=O)NC(C)=O)C(=O)NCCOCCOCCOCCOCCOCCOCCC(=O)N[C@@H](CCCNC(=N)N)C(=O)N[C@@H](CCCNC(=N)N)C(=O)N[C@@H](CC(C)C)C(=O)N[C@@H](Cc2ccccc2)C(=O)N[C@H]2CSSC[C@@H](C(=O)N[C@H](C(=O)N[C@@H](Cc4c[nH]c5ccccc45)C(=O)N[C@@H](CCCNC(=N)N)C(=O)N[C@@H](CC(=O)O)C(N)=O)[C@@H](C)O)NC(=O)[C@H]([C@@H](C)O)NC(=O)[C@H](CCCCN)NC(=O)[C@@H](Cc4c[nH]c5ccccc45)NC(=O)[C@H](Cc4ccc(O)cc4)NC2=O)C1=O)CC3 (stereo partly drawn) [Example 7, Ac-Cys(MC-Gly-Gly-Phe-Gly-NH-CH2-Dxd)-PEG6-Lys(Ac-Cys(MC-Gly-Gly-Phe-Gly-NH-CH2-Dxd)-PEG6)-Lys(Ac-Cys(MC-Gly-Gly-Phe-Gly-NH-CH2-Dxd)-PEG6)-PEG6-Arg-Arg-Leu-Phe-[Cys-Tyr-D-Trp-Lys-Thr-Cys]-Thr-Trp-Arg-Asp-NH2] (I: Ac-C[PEG6]KK[PEG6]RRLFCY[dW]KTCTWRD-NH2 / II: GGFG[NHCH2OCH2CO]-Exatecan / III: GGFG[NHCH2OCH2CO]-Exatecan / IV: GGFG[NHCH2OCH2CO]-Exatecan; linker I:1-III:N via Hexanoyl(6-succinimido-3yl); linker I:3-II:N, I:4-IV:N via X4; disulfide I:10-I:15) |  |  | 54.4 | 122 | 23400 | 
CCC(C)C(C(CC(=O)N1CCCC1C(OC)C(C)C(=O)NC(C)C(O)c1ccccc1)OC)N(C)C(=O)C(NC(=O)C(NC)C(C)C)C(C)C (centres unmarked) [MMAE] | 0.31 | 85.99 |  |  |  | IC50 ([1]; Homo sapiens, read-out: IC50): 0.57 nM
CC(=O)O[C@H]1C(=O)[C@@]2(C)[C@H]([C@H](OC(=O)c3ccccc3)[C@]3(O)C[C@H](OC(=O)[C@H](O)[C@@H](NC(=O)c4ccccc4)c4ccccc4)C(C)=C1C3(C)C)[C@]1(OC(C)=O)CO[C@@H]1C[C@@H]2O [PTX] | 0.47 | 78.37 |  |  |  | IC50 ([1]; read-out: IC50): 3.74 nM
CC(C)C[C@H](NC(=O)[C@H](CCCNC(=N)N)NC(=O)[C@@H](N)CCCNC(=N)N)C(=O)N[C@@H](Cc1ccccc1)C(=O)N[C@H]1CSSC[C@@H](C(=O)N[C@H](C(=O)N[C@@H](Cc2c[nH]c3ccccc23)C(=O)N[C@@H](CCCNC(=N)N)C(=O)N[C@@H](CC(=O)O)C(N)=O)[C@@H](C)O)NC(=O)[C@H]([C@@H](C)O)NC(=O)[C@H](CCCCN)NC(=O)[C@@H](Cc2c[nH]c3ccccc23)NC(=O)[C@H](Cc2ccccc2)NC1=O [SEQ ID No. 2, H-Arg-Arg-Leu-Phe-[Cys-Phe-D-Trp-Lys-Thr-Cys]-Thr-Trp-Arg-Asp-NH2] (H-RRLFCF[dW]KTCTWRD-NH2; disulfide 5-10) |  |  |  |  | 35.4 | activity at 150 µM ([2]; Max Dose 150000 nM): 99.1%
